The values below are quoted from earlier work in US20200360276A1 (Aerovate Therapeutics, Inc., priority 2019, published 2020).

Molecules are shown by their SMILES.

The conditions of series [1]: relative to imatinib parent compound.
The conditions of series [2]: relative to imatinib parent compound. This is another data set of the same source.
The conditions of series [3]: aqueous solution, dependence on pH.
The subject of series [4] is platelet-derived growth factor receptor (PDGFR).

With `Cc1ccc(NC(=O)c2ccc(CN3CCNCC3)cc2)cc1Nc1nccc(-c2cccnc2)n1` [N-desmethyl imatinib], the half-life result in series [1] is listed as “increased half-life relative to the parent imatinib compound”. Also, in series [2], the potency result is recorded as “same potency as the imatinib parent compound”. Further, the solubility entry in series [3] is listed as “increases as the pH drops”. Besides, the “inhibition of PDGFR” value in series [4] is “potent inhibitor”.
